Data from PMC2714422 (Journal of medicinal chemistry, 2009).
Entries after “also recorded” stand apart in the source; their conditions may differ.

How the values were obtained:
[1] = system: SK-Mel cells; assay: Cellular polyamine levels in SK-Mel cells, compound alone; assay type: cell-based, human; conditions: 10 µM for 24 hrs
[2] = hydrochloride salt form of 5; prior formulation work, ref not given; cited from earlier work
[3] = system: MDA-MB-231 cells; assay: Cellular polyamine depletion, PTI plus DFMO; assay type: cell-based, human; conditions: 5 days, 30 µM 5 or 0.1 µM 11 with 5.0 mM DFMO, 0.5 µM spermidine, 1.0 mM aminoguanidine
[4] = system: squamous cell carcinoma (SCC) tumors; assay: K6/ODC transgenic mouse squamous cell carcinoma model; assay type: in vivo
[5] = DFMO 0.5% in drinking water + 0.5 mg/kg 11 i.p. twice daily, 4 weeks

**Q.** Which “level of cellular polyamines, compound added alone” value [1] does the source give for `CCCCCCCC(=O)NCCCC[C@H](N)C(=O)NCCCNCCCCNCCCN` [Compound 8] here?
**A.** none of these agents influenced the level of cellular polyamines

**Q.** Which “level of cellular polyamines, compound added alone” value [1] does the source give for `CCCCCCCCCCCCCCCC(=O)NCCCC[C@H](N)C(=O)NCCCNCCCCNCCCN` [Compound 10, L-Lys-ε-(palmitoyl)-N^1-spermine] here?
**A.** none of these agents influenced the level of cellular polyamines

**Q.** With `NCCCC[C@@H](N)C(=O)NCCCNCCCCNCCCN` [Compound 5, D-Lys-Spm] as the compound, how does the “oral bioavailability, hydrochloride salt form” value [2] read?
**A.** < 1%

**Q.** Which “polyamine levels of the cell, combination with DFMO” value [3] does the source give for `CCCCCCCCCCCCCCCC(=O)NCCCC[C@@H](N)C(=O)NCCCNCCCCNCCCN` [Compound 11, D-Lys-ε-(palmitoyl)-N^1-spermine] here?
**A.** potent reduction in the polyamine levels

**Q.** And the “toxicity at efficacious dose level” value ([4]; 11 at 0.5 mg/kg i.p. twice daily with DFMO, mice)?
**A.** no apparent toxicity

**Q.** And the “SCCs with complete or near-complete responses (>95% volume reduction)” value [4, 5]?
**A.** 71%

**Q.** And the “number of SCCs with complete responses out of 17” value [4, 5]?
**A.** 9

**Q.** Which results are given for `NCCC[C@](N)(C(=O)O)C(F)F` [DFMO, α-difluoromethylornithine, reference compound]?
**A.** tumor growth effect of DFMO alone ([4]; DFMO alone in drinking water): moderate tumor growth inhibitory effects; also recorded: weak effect; DFMO alone treated tumors that re-grew ([4]; DFMO alone, 6 weeks off-treatment after 4 week treatment): 11 of 12
